Test [1] concerns the target T1, human ADAMTS-5 (Homo sapiens (Human), UniProt Q9UNA0). In words: biochemical.
Procedure: Finally, the fluorescence is read on the Envision (Perkin Elmer) after an incubation of 90 min at 37° C.
Test [2] addresses T2, human TACE (Homo sapiens (Human), UniProt P78536). In words: biochemical.
For test [3], the target named is T3, human MMP13 (Homo sapiens (Human), UniProt P45452). The experiment in a line: biochemical.
Procedure: Human MMP13 is preactivated by incubated the enzyme in the same buffer complemented with 1 mM freshly prepared p-Aminophenylmercuric acetate (AMPA) for 1 hour at 37° C.
The target in the next test is rnADAMTS-5 (1-564-6H) (Rattus norvegicus, UniProt Q6TY19). Conditions: read-out: Rat ADAMTS-5 potency IC50.
In test [4] the target is T1, human ADAMTS-5. Conditions: read-out: hADAMTS-5 potency IC50.
The target in test [5] is T2, human TACE. Conditions: read-out: TACE potency IC50.
The target of test [6] is T3, human MMP13. Conditions: read-out: hMMP-13 potency IC50.
Procedure: The reaction is initiated by adding to the assay plate 520 MMP-fret substrate XV (10 μL, 4 μM) in the same buffer.

Structures are written as SMILES. pIC50: −log10 of the molar value. Read-outs that look alike come from different tables or passages of the source. Bounds are passed on as bounds.

T2 sequence (P78536 whole entry, looked up, change not shown): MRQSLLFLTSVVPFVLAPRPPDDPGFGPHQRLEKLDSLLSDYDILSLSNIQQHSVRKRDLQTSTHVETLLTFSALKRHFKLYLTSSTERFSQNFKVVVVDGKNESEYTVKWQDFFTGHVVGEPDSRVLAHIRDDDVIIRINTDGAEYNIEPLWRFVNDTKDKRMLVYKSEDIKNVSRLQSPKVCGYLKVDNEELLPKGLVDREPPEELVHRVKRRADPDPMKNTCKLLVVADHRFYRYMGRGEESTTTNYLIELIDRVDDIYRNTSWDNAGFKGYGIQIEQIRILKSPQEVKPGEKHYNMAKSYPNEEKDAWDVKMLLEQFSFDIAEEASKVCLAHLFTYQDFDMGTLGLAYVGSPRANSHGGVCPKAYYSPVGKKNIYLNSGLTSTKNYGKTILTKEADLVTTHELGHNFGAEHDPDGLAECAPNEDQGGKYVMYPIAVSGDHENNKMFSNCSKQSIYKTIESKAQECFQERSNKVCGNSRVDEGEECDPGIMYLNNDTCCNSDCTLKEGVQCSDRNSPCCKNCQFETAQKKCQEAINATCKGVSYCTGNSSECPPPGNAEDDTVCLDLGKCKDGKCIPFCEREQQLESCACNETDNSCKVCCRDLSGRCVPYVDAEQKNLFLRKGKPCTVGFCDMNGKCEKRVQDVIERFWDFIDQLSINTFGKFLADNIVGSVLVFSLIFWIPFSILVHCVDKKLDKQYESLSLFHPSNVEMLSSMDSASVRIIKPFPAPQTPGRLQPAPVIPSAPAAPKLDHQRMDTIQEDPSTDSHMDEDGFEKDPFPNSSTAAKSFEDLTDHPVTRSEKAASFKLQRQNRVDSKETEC
T1 sequence (Q9UNA0 262-930): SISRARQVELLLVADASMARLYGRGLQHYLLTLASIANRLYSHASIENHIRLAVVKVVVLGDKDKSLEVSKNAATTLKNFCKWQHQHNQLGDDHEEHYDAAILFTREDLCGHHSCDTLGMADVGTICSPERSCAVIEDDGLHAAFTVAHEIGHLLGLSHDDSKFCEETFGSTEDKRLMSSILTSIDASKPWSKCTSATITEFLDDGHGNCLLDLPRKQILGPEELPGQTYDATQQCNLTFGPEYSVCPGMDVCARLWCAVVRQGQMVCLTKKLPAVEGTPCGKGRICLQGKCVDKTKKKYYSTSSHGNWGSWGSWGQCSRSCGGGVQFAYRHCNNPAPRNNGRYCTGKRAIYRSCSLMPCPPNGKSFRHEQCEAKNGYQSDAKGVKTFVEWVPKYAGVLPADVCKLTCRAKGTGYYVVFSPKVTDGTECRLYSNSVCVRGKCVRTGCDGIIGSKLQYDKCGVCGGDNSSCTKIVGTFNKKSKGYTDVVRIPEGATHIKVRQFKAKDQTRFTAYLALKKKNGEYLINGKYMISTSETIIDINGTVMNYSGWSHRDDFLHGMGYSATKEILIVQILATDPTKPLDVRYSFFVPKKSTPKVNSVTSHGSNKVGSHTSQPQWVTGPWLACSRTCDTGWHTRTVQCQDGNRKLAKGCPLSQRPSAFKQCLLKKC

By pIC50 is commonly meant the IC50 on a negative log10 scale, so that one unit is a factor of ten. Turning to `C[C@H]1CN(C(=O)CCC2(c3ccc(C(F)(F)F)nc3)NC(=O)NC2=O)CCN1c1cc(F)cc(F)c1` (stereo partly drawn) [compound 335, 5-[3-[(3S)-4-(3,5-difluorophenyl)-3-methyl-piperazin-1-yl]-3-oxo-propyl]-5-[6-(trifluoromethyl)-3-pyridyl]imidazolidine-2,4-dione], the pIC50 was 7.11 at human ADAMTS-5 [1] and less than 5.40 on human TACE [2].
For the molecule `C[C@H]1CN(C(=O)CCC2(C)NC(=O)NC2=O)CCN1c1ccc(Cl)c(F)c1` (stereo partly drawn) [compound 164, 5-[3-[(3S)-4-(4-chloro-3-fluoro-phenyl)-3-methyl-piperazin-1-yl]-3-oxo-propyl]-5-methyl-imidazolidine-2,4-dione], the pIC50 on human ADAMTS-5 [1] was 6.63; at human TACE [2], less than 4.70; against human MMP13 [3] it was less than 4.70.
For the molecule `COCC1(CC(C)C(=O)N2CCN(c3cncc(F)c3)[C@@H](C)C2)NC(=O)NC1=O` (stereo partly drawn) [compound 364, 5-[3-[(3S)-4-(5-fluoro-3-pyridyl)-3-methyl-piperazin-1-yl]-2-methyl-3-oxo-propyl]-5-(methoxymethyl)imidazolidine-2,4-dione], the pIC50 was 7.04 against human ADAMTS-5 [1] and less than 4.70 against human TACE [2].
In the same order, the values of `C[C@H]1CN(C(=O)CCC2(C3CC3)NC(=O)NC2=O)CCN1c1cccc2c1cnn2C` (stereo partly drawn) [compound 333, 5-cyclopropyl-5-[3-[(3S)-3-methyl-4-(1-methylindazol-4-yl)piperazin-1-yl]-3-oxo-propyl]imidazolidine-2,4-dione] are 5.51 and less than 4.70.
On to `O=C1NC(=O)C(CCC(=O)N2CCN(c3ccc4cnccc4c3)CC2)(c2ccccc2)N1` (centres unmarked) [compound 14, 5-[3-[4-(6-isoquinolyl)piperazin-1-yl]-3-oxo-propyl]-5-phenyl-imidazolidine-2,4-dione], for which the pIC50 on rnADAMTS-5 (1-564-6H) is 6.11; on human ADAMTS-5 [4] it was 6.05; on human TACE [5] it was less than 5.40; at human MMP13 [6], 6.44.
For `O=C1NC(=O)C(CCC(=O)N2CCN(c3ccc(Cl)c(F)c3)CC2)(c2ccccc2)N1` (centres unmarked) [compound 10, 5-[3-[4-(4-chloro-3-fluoro-phenyl)piperazin-1-yl]-3-oxo-propyl]-5-phenyl-imidazolidine-2,4-dione] the same measures were 7.39, 7.25, less than 5.55 and 6.55.

Values taken from patent US9926281B2 (priority 2014, dated 2018).
